Source: US20240024273A1, “TOPICAL ADMINISTRATION OF 2-(DIETHYLAMINO)ETHYL 2-(4-ISOBUTYLPHENYL)PROPRIONATE FOR TREATMENT OF DISEASES” (TECHFIELDS PHARMA CO., LTD., priority 2020, published 2024)
Where two headings read alike, the source gives them in different places.

Experiments:
[1] = 28-day GLP repeated dermal dose toxicity and toxicokinetics study; design: species or system Rats; settings: rat, in vivo; for AUC(0-t): read-out: AUC0-24 h
Osteoarthritis = assay: Phase 2 study: effect of treatment on sign and symptoms of osteoarthritis at 12 weeks (re-analysis, all patients taken as active); type: in vivo, human; settings: for difference from placebo, sign and symptoms of OA: placebo effect assumed −6.1; for Mean ± SEM WOMAC Osteoarthritis Index Composite Score Change from Baselines / Mean ± SEM WOMAC Osteoarthritis Index Composite Score Change from Baselines, adjusted by […] of the testing drug amount: scale 0 to 100
Source text: (William G. Bensen, Justus J. Fiechtner, James 1. McMillen, et. al. Treatment of Osteoarthritis with Celecoxib. Mayo Clin Proc, November 1999. Vol 74, 1095-1105.)

[2] = 14-day repeated dermal dose toxicity study; design: species or system Beagle dogs; settings: beagle, dog, in vivo, topical or ocular; 14-day dermal
[3] = 14-day repeated dermal dose toxicity study; design: species or system Rats; settings: rat, in vivo, topical or ocular; 14-day dermal
[4] = 28-day GLP repeated dermal dose toxicity and toxicokinetics study; design: species or system Beagle dogs; settings: beagle, dog, in vivo, topical or ocular, 28-day dermal
[5] = male, topical, 100 mg/kg/day, males, Day 28

For `CCN(CC)CCOC(=O)C(C)c1ccc(CC(C)C)cc1` (centres unmarked) [2-(diethylamino)ethyl 2-(4-isobutylphenyl)propionate], the AUC(0-t) ([1]; female, topical, 100 mg/kg/day, females, Day 28) was 422 µg·h/mL, the Cmax [1, 5] was 47400 ng/mL and the AUC(0-t) [1, 5] was 165 µg·h/mL. For the same molecule, the NOAEL at 28 days ([1]; ulcers at application site at ≥100 mg/kg/day, read-out: local NOAEL) was 25 mg/kg/day, the “difference from placebo, sign and symptoms of OA” value (shortened to “difference from placebo … of OA”) (Osteoarthritis; 8.75 mg BID, Week 12) was −13.4 and the “adjusted best result relative to Celecoxib (100 mg, BID)” value (Osteoarthritis; 17.5 mg BID) was 6 times. The “best result relative to Celecoxib (100 mg, BID)” value (Osteoarthritis; 17.5 mg BID) was 3 times, the “difference from placebo, adjusted by […] of the testing drug” value (Osteoarthritis; 17.5 mg BID, Week 12) was −43.5 and the “difference from placebo … of OA” value (Osteoarthritis; 17.5 mg BID, Week 12) was −22.8. For the same molecule, the “difference from placebo … of OA” value (Osteoarthritis; 35 mg BID, Week 12) was −16.9, the “Mean ± SEM WOMAC Osteoarthritis Index Composite Score Change from Baselines” value (Osteoarthritis; 2 sprays/knee (8.75 mg, BID) transdermally, Follow-up (Week13)) was −18.4 ± 3.20 and the “Mean ± SEM WOMAC Osteoarthritis Index Composite Score Change from Baselines” value (Osteoarthritis; 2 sprays/knee (8.75 mg, BID) transdermally, Week 2) was −11.1 ± 2.50. For the same molecule, the “Mean ± SEM WOMAC Osteoarthritis Index Composite Score Change from Baselines” value (Osteoarthritis; 2 sprays/knee (8.75 mg, BID) transdermally, Week 4) was −18.0 ± 2.50, the “Mean ± SEM WOMAC Osteoarthritis Index Composite Score Change from Baselines” value (Osteoarthritis; 2 sprays/knee (8.75 mg, BID) transdermally, Week 8) was −18.1 ± 2.92 and the “Mean ± SEM WOMAC Osteoarthritis Index Composite Score Change from Baselines” value (Osteoarthritis; 2 sprays/knee (8.75 mg, BID) transdermally, Week 12) was −19.5 ± 3.18. The “Mean ± SEM WOMAC Osteoarthritis Index Composite Score Change from Baselines, adjusted by […] of the testing drug amount” value (Osteoarthritis; 2 sprays/knee (8.75 mg, BID), Follow-up (Week 13)) was −31.6 ± 5.49, the “Mean ± SEM WOMAC Osteoarthritis Index Composite Score Change from Baselines, adjusted by […] of the testing drug amount” value (Osteoarthritis; 2 sprays/knee (8.75 mg, BID), Week 2) was −19.0 ± 4.29 and the “Mean ± SEM WOMAC Osteoarthritis Index Composite Score Change from Baselines, adjusted by […] of the testing drug amount” value (Osteoarthritis; 2 sprays/knee (8.75 mg, BID), Week 4) was −30.9 ± 4.29. The “Mean ± SEM WOMAC Osteoarthritis Index Composite Score Change from Baselines, adjusted by […] of the testing drug amount” value (Osteoarthritis; 2 sprays/knee (8.75 mg, BID), Week 8) was −31.0 ± 5.01, the “Mean ± SEM WOMAC Osteoarthritis Index Composite Score Change from Baselines, adjusted by […] of the testing drug amount” value (Osteoarthritis; 2 sprays/knee (8.75 mg, BID), Week 12) was −33.4 ± 5.45 and the “Mean ± SEM WOMAC Osteoarthritis Index Composite Score Change from Baselines” value (Osteoarthritis; 4 sprays/knee (17.5 mg, BID) transdermally, Follow-up (Week13)) was −23.4 ± 3.52. The “Mean ± SEM WOMAC Osteoarthritis Index Composite Score Change from Baselines” value (Osteoarthritis; 4 sprays/knee (17.5 mg, BID) transdermally, Week 2) was −15.1 ± 2.89, the “Mean ± SEM WOMAC Osteoarthritis Index Composite Score Change from Baselines” value (Osteoarthritis; 4 sprays/knee (17.5 mg, BID) transdermally, Week 4) was −21.3 ± 3.32 and the “Mean ± SEM WOMAC Osteoarthritis Index Composite Score Change from Baselines” value (Osteoarthritis; 4 sprays/knee (17.5 mg, BID) transdermally, Week 8) was −24.8 ± 3.26. For the same molecule, the “Mean ± SEM WOMAC Osteoarthritis Index Composite Score Change from Baselines” value (Osteoarthritis; 4 sprays/knee (17.5 mg, BID) transdermally, Week 12) was −28.9 ± 3.38, the “Mean ± SEM WOMAC Osteoarthritis Index Composite Score Change from Baselines, adjusted by […] of the testing drug amount” value (Osteoarthritis; 4 sprays/knee (17.5 mg, BID), Follow-up (Week 13)) was −40.1 ± 6.04 and the “Mean ± SEM WOMAC Osteoarthritis Index Composite Score Change from Baselines, adjusted by […] of the testing drug amount” value (Osteoarthritis; 4 sprays/knee (17.5 mg, BID), Week 2) was −25.9 ± 4.96. For the same molecule, the “Mean ± SEM WOMAC Osteoarthritis Index Composite Score Change from Baselines, adjusted by […] of the testing drug amount” value (Osteoarthritis; 4 sprays/knee (17.5 mg, BID), Week 4) was −36.5 ± 5.69, the “Mean ± SEM WOMAC Osteoarthritis Index Composite Score Change from Baselines, adjusted by […] of the testing drug amount” value (Osteoarthritis; 4 sprays/knee (17.5 mg, BID), Week 8) was −42.5 ± 5.59 and the “Mean ± SEM WOMAC Osteoarthritis Index Composite Score Change from Baselines, adjusted by […] of the testing drug amount” value (Osteoarthritis; 4 sprays/knee (17.5 mg, BID), Week 12) was −49.6 ± 5.80. For the same molecule, the “Mean ± SEM WOMAC Osteoarthritis Index Composite Score Change from Baselines” value (Osteoarthritis; 8 sprays/knee (35 mg, BID) transdermally, Follow-up (Week13)) was −22.1 ± 3.23, the “Mean ± SEM WOMAC Osteoarthritis Index Composite Score Change from Baselines” value (Osteoarthritis; 8 sprays/knee (35 mg, BID) transdermally, Week 2) was −11.7 ± 2.88 and the “Mean ± SEM WOMAC Osteoarthritis Index Composite Score Change from Baselines” value (Osteoarthritis; 8 sprays/knee (35 mg, BID) transdermally, Week 4) was −17.0 ± 2.96. The “Mean ± SEM WOMAC Osteoarthritis Index Composite Score Change from Baselines” value (Osteoarthritis; 8 sprays/knee (35 mg, BID) transdermally, Week 8) was −21.7 ± 3.28, the “Mean ± SEM WOMAC Osteoarthritis Index Composite Score Change from Baselines” value (Osteoarthritis; 8 sprays/knee (35 mg, BID) transdermally, Week 12) was −23.0 ± 3.27 and the “Mean ± SEM WOMAC Osteoarthritis Index Composite Score Change from Baselines, adjusted by […] of the testing drug amount” value (Osteoarthritis; 8 sprays/knee (35 mg, BID), Follow-up (Week 13)) was −37.9 ± 5.54. For the same molecule, the “Mean ± SEM WOMAC Osteoarthritis Index Composite Score Change from Baselines, adjusted by […] of the testing drug amount” value (Osteoarthritis; 8 sprays/knee (35 mg, BID), Week 2) was −20.1 ± 4.94, the “Mean ± SEM WOMAC Osteoarthritis Index Composite Score Change from Baselines, adjusted by […] of the testing drug amount” value (Osteoarthritis; 8 sprays/knee (35 mg, BID), Week 4) was −29.2 ± 5.08 and the “Mean ± SEM WOMAC Osteoarthritis Index Composite Score Change from Baselines, adjusted by […] of the testing drug amount” value (Osteoarthritis; 8 sprays/knee (35 mg, BID), Week 8) was −37.2 ± 5.63. The “Mean ± SEM WOMAC Osteoarthritis Index Composite Score Change from Baselines, adjusted by […] of the testing drug amount” value (Osteoarthritis; 8 sprays/knee (35 mg, BID), Week 12) was −39.5 ± 5.61, the NOAEL at 14 days [2] was 50 mg/kg/day and the NOAEL at 14 days [3] was 250 mg/kg/day. The NOAEL at 28 days ([4]; read-out: NOAEL (not attained; ulcers at application site at lowest dose)) was under 12.4 mg/kg/day and the NOAEL at 28 days ([4]; read-out: systemic NOAEL (tissues other than the dermal application site)) was 24.8 mg/kg/day.
